Values of other authors, collected in patent publication US11439578B2, “Agent for dyeing hair, containing at least one organic silicon compound, a coloring compound and a film-forming, hydrophilic polymer” (Henkel AG & Co. KGaA, priority 2018, dated 2022).

Details: about 25° C.

| Structure (SMILES) | solubility in water | solubility in water (in words) |
| --- | --- | --- |
| CCN(Cc1cccc(S(=O)(=O)[O-])c1)c1ccc(C(=C2C=CC(=[N+](CC)Cc3cccc(S(=O)(=O)[O-])c3)C=C2)c2ccccc2S(=O)(=O)[O-])cc1.[Na+].[Na+] [Acid Blue 9] | more than 20 % by weight | – |
| O=C([O-])C1=NN(c2ccc(S(=O)(=O)[O-])cc2)C(=O)C1N=Nc1ccc(S(=O)(=O)[O-])cc1.[Na+].[Na+].[Na+] (centres unmarked) [Acid Yellow 23, trisodium salt of 4,5-dihydro-5-oxo-1-(4-sulfophenyl)-4-((4-sulfophenyl)azo)-1H-pyrazole-3-carboxylic acid] | – | highly soluble in water |
| Nc1cc(S(=O)(=O)[O-])cc2cc(S(=O)(=O)[O-])c(N=Nc3ccccc3)c(O)c12.[Na+].[Na+] [Acid Red 33, disodium salt of 5-amino-4-hydroxy-3-(phenylazo)-naphthalene-2,7-disulphonate] | about 2.5 g/L | – |
| O=C([O-])c1c(Cl)c(Cl)c(Cl)c(Cl)c1-c1c2c(Br)cc(=O)c(Br)c-2oc2c(Br)c(O)cc(Br)c12.O=C([O-])c1c(Cl)c(Cl)c(Cl)c(Cl)c1-c1c2c(Br)cc(=O)c(Br)c-2oc2c(Br)c(O)cc(Br)c12.[Na+].[Na+] [Acid Red 92, disodium salt of 3,4,5,6-tetrachloro-2-(1,4,5,8-tetrabromo-6-hydroxy-3-oxoxanthen-9-yl)benzoic acid] | greater than 10 g/L | – |
| O=S(=O)([O-])c1ccc(N=Nc2c(O)ccc3ccccc23)cc1.[Na+] [Acid Orange 7, sodium salt of 4-[(2-hydroxy-1-naphthyl)azo]benzene sulphonate] | more than 7 g/L | – |
